Laboratory results published in patent publication US7169785B2, “Methods and compositions of novel triazine compounds” (Reddy US Therapeutics, Inc., priority 2001, dated 2007).
“Also recorded” adds a separate entry of the source.

Key:
IL6 = experiment: Inflammation Data of Table 8: IL6 production compared to cells that did not receive compound (stimulus AGE or TNF not given); format: cell-based
Excerpt: Additional bioactivity data for compounds of the present invention are presented in Table 8, where compounds that have at least the activity of effecting cellular proliferation or at least the activity of modulating inflammation activity, as measured by the assays taught herein, are provided. […] The inclusion of compounds in the categories of the Tables disclosed herein, including this Table, is not to be seen as limiting, in that compounds included in such Tables have at least the activity shown for inclusion in the Table and may have more or other activities. Nor are the Tables to be seen as limiting in that these are the only compounds disclosed herein that have that activity, representative compounds are shown in the Tables that have at least that particular activity for inclusion in the Table. One or more compounds disclosed herein have at least an activity that has utility in treatment of disease states. Note that any hydrogen atoms that are required for any atom to attain its usual valence in a structure presented in Table 8, whether a carbon atom or a heteroatom, should be inferred if it is not specifically indicated.

cells = experiment: Cytotoxicity / lactate dehydrogenase assay and visual observation of cells; format: cell-based
Procedure: Assays for determining the activity of compounds capable of cytotoxic activity include those taught in herein and others that are well known in the art. In general, to determine if there is cytotoxic activity associated with a compound, cells of a particular type, in a growing stage or a quiescient stage, are treated with the compound of interest. Various parameters of cell death or cessation are used to measure the effects of the compound. For example, the amount of nucleic acid or protein synthesis can be measured or visual observation of the state of the cells, such as release from the substrate, can be used to measure the state of the cells.
An appropriate number of cells are plated in four 96-well plates, one plate for “day 0” and three plates for days 1–3. Cells are treated with at least one compound of the present invention in varying concentrations with and without the apoptosis inducer cisplatin (2 μM) (“+cis” or “−cis”). Unteated cells are also assayed with and without cisplatin. After transfection, the plates are incubated at 37° C. overnight.
An appropriate number of cells are plated in four 96-well plates, one plate for “day 0” and three plates for days 1–3. Cells are treated with at least one compound of the present invention in varying concentrations. The negative control cells have normal media conditions, a duplicate set of wells is treated with the composition in which the compound is provided, but there is no added compound and the positive control cells are treated with the apoptosis inducer cisplatin (2 μM). All of the cells are transfected with a vector having a promoter that is responsive to apoptosis conditions. When apoptosis occurs, the promoter is turned on and the lactic dehydrogenase gene is activated and the enzyme protein is made and active. Activity is easily detected with a color change. After transfection, the plates are incubated at 37° C. overnight.
About 8 mls of warmed alpha MEM LDH lysis buffer (2% Triton X100) and about 8 mls of culture media (½ dilution) are combined. Two 96-well v-bottom plates are prepared, one labeled “lysis” and one labeled “supernatant.” To lyse the cells, about 200 μl Alpha MEM lysis buffer (diluted ½) is added to one test plate from which the supernatant has been removed and added to the plate labeled supernatant. After mixing, about 200 μl of lysed cells are transferred to the lysis plate. Both the lysis and supernatant plates are centrifuged at about 1600 rpm for about 10 min. After centrifugation, about 100 μl of both the supernatant or lysate is transferred to corresponding 96-well flat-bottomed plates.
The assay for cytotoxicity uses the Cytotoxicity Detection Kit (LDH) from Roche Diagnostics Corp. (Indianapolis, Ind.). Using the directionts provided, the dye solution is mixed and added each well of the lysate and supernatant plate and incubated for up to 20–25 min at 15–25° C. in the dark.

[1] = tested on: Human aortic smooth muscle cells; experiment: Smooth muscle cell proliferation assay (anti-proliferation assay, perlecan); format: cell-based; details: for IC50: Homo sapiens, read-out: Proliferation Data, average IC50
Procedure: Human aortic smooth muscle cells (Clonetics) were used. Cells were grown in basal medium containing 5% fetal bovine serum supplemented with growth factors, basic fibroblast growth factor, epidermal growth factor and insulin. […] The cells were then serum starved for 24 h to induce quiescence. Fresh growth medium containing no compound or 10 μM compound was then added and further incubated for 24 h. Cell number was determined by using a cell proliferation assay kit (Celltiter96 AQueous from Promega).

[2] = observed in the proliferation assay

CN(c1nc(Nc2ccc(O)cc2)nc(NC2CCCCCC2)n1)C1CCNCC1
inhibition at 5 µM (IL6; at 5 uM): 50%
cell death under Inflammation Data (cells; 5 uM): 20%
cell death under Inflammation Data (cells; 10 uM): total cell death

COc1ccc(Nc2nc(NC3CCCCCC3)nc(OCC3CCCN3)n2)cc1Cl (centres unmarked) [Compound E22, N^2-(3-chloro-4-methoxyphenyl)-N^4-cycloheptyl-6-(2-azolanylmethoxy)-1,3,5-triazine-2,4-diamine]
melting point: 84 to 86 °C

COc1ccc(Nc2nc(NC3CCCCCC3)nc(OCC3CCCN3C)n2)cc1Cl (centres unmarked)
Inflammation Data, inhibition (IL6; at 10 uM): complete inhibition
IC50 [1]: 5.25 µM
cell death under Inflammation Data (cells; at 10 uM): total cell death

COc1ccc(Nc2nc(NC3CCCCCC3)nc(OC3CCCN(C(C)=O)C3)n2)cc1Cl (centres unmarked) [Compound E20, 1-[3-{4-(3-chloro-4-methoxyanilino)-6-cycloheptylamino-1,3,5-triazine-2-yloxy}piperidino]-1-ethanone]
melting point: 138 to 140 °C

COc1ccc(Nc2nc(NC3CCCCCC3)nc(OC3CCN(C)CC3)n2)cc1Cl
inhibition at 10 µM (IL6; at 10 uM): 95%
cell death under Inflammation Data (cells; at 10 uM): total cell death
cell morphology change / cell death observed under Proliferation Data (words with concentration) (cells; [2]): rounding at 5 & 10 uM

COc1ccc(Nc2nc(Cl)nc(Cl)n2)cc1F [Compound 124, (4,6-Dichloro-[1,3,5]triazin-2-yl)-(3-fluoro-4-methoxy-phenyl)-amine]
melting point: 134 °C

CN(c1nc(Nc2ccc(OCc3ccccc3)c(Cl)c2)nc(NC2CCCCCC2)n1)C1CCNCC1
Inflammation Data (result in words) (IL6; at 1 uM): not active
inhibition at 5 µM (IL6; at 5 uM): 58%
cell death under Inflammation Data (cells; 5 uM): 50%
cell death under Inflammation Data (cells; 10 uM): total cell death

COc1ccc(Nc2nc(NC3CCCCCC3)nc(NC3CCN(Cc4ccccc4)CC3)n2)cc1Cl [drawing 1010]
inhibition at 5 µM (IL6; at 5 uM): 37%
inhibition at 10 µM (IL6; at 10 uM): 41%
cell death under Inflammation Data (cells; at 5 uM): 20%
cell death under Inflammation Data (cells; at 10 uM): > 50%
cell morphology change / cell death observed under Proliferation Data (words with concentration) (cells; [2]): cell blunting at 1 uM; also recorded: rounding at 5 uM

CN1CCC(N(C)c2nc(Nc3ccc(O)c(Cl)c3)nc(NC3CCCCCC3)n2)CC1 [drawing 1008]
inhibition at 5 µM (IL6; at 5 uM): 64%
inhibition at 10 µM (IL6; at 10 uM): 84%
cell death under Inflammation Data (cells; 10 uM): total cell death
cell morphology change / cell death observed under Proliferation Data (words with concentration) (cells; human, 24 h): cell bluntingat 3 to 10 uM

Oc1ccc(Nc2nc(Cl)nc(NC3CCCCCC3)n2)cc1Cl
inhibition at 5 µM (IL6; at 5 uM): 25%
inhibition at 10 µM (IL6; at 10 uM): 25%
Proliferation Data (result in words) ([1]; concentration not given): Not active

COc1ccc(Nc2nc(NC3CCCCCC3)nc(N3CCCC3CO)n2)cc1Cl (centres unmarked)
Inflammation Data (result in words) (IL6; concentration not given): Not Active
Proliferation Data (result in words) ([1]; 5 & 10 uM screens): Did not pass
cell morphology change / cell death observed under Proliferation Data (words with concentration) (cells; [2]): rounding

COc1ccc(Nc2nc(Cl)nc(NC3CC3)n2)cc1F
inhibition at 10 µM (IL6; at 10 uM): 36%
Proliferation Data (result in words) ([1]; concentration not given): Not active

COc1ccc(Nc2nc(NC3CCCCCC3)nc(OCCOc3ccccc3F)n2)cc1Cl
Inflammation Data (result in words) (IL6; concentration not given): Not active
Proliferation Data (result in words) ([1]; concentration not given): Not active

CCN1CCCC1CNc1nc(NCC2CCCCC2)nc(Nc2ccc(OC)c(F)c2)n1 (centres unmarked) [Compound 126, N-Cyclohexylmethyl-N′-(1-ethyl-pyrrolidin-2-ylmethyl)-N″-(3-fluoro-4-methoxy-phenyl)-[1,3,5]triazine-2,4,6-triamine]
melting point: 72 °C

CN1CCC(N(C)c2nc(Nc3ccc(OCc4ccccc4)c(Cl)c3)nc(NC3CCCCCC3)n2)CC1
Inflammation Data (result in words) (IL6; at 1 uM): Not active
cell death under Inflammation Data (cells; 5 uM): 30%
cell death under Inflammation Data (cells; 10 uM): totaldeath

COc1ccc(Nc2nc(NC3CCCCCC3)nc(Oc3ccccc3F)n2)cc1Cl [drawing 1000]
Inflammation Data (result in words) (IL6; concentration not given): Not Active
Proliferation Data (result in words) ([1]; concentration not given): Not active

COc1ccc(Nc2nc(NC3CCCCCC3)nc(OCC3CCCN3)n2)cc1Cl (centres unmarked) [drawing 994]
inhibition at 10 µM (IL6; at 10 uM): 75%
Proliferation Data (result in words) ([1]; 5 & 10 uM screens): Not active at 5 & 10 uM

COc1ccc(Nc2nc(NC3CCCCCC3)nc(OC3CCCNC3)n2)cc1Cl (centres unmarked)
inhibition at 10 µM (IL6; at 10 uM): 60%
IC50 [1]: 4.9 µM
cell death under Inflammation Data (cells; at 10 uM): 20%

COc1ccc(Nc2nc(NC3CCCCCC3)nc(OC(C)C)n2)cc1Cl [drawing 993]
inhibition at 10 µM (IL6; at 10 uM): < 25%
Proliferation Data (result in words) ([1]; concentration not given): Not active

COc1ccc(Nc2nc(NC3CCCCCC3)nc(NC3CCN(Cc4ccccc4)CC3)n2)cc1F
inhibition at 5 µM (IL6; at 5 uM): 43%
inhibition at 10 µM (IL6; at 10 uM): 97%
cell death under Inflammation Data (cells; at 5 uM): 25%
cell death under Inflammation Data (cells; at 10 uM): total cell death
cell morphology change / cell death observed under Proliferation Data (words with concentration) (cells; [2]): cell bluntingat 3 uM; also recorded: rounding at 5uM

COc1ccc(Nc2nc(NC3CCCCCC3)nc(OC3CCCN(C(C)=O)C3)n2)cc1Cl (centres unmarked) [drawing 992]
Inflammation Data, inhibition (IL6; at 10 uM): complete inhibition at 10 uM
Proliferation Data (result in words) ([1]; 5 & 10 uM screens): Not active at 5 & 10 uM

COc1ccc(Nc2nc(NC3CCCCCC3)nc(N3CCN(C)CC3)n2)cc1Cl
inhibition at 10 µM (IL6; at 10 uM): 75%
Proliferation Data (result in words) ([1]; 5 & 10 uM screens): Did not pass
cell death under Inflammation Data (cells; at 5 uM): 25%
cell death under Inflammation Data (cells; at 10 uM): total cell death
cell morphology change / cell death observed under Proliferation Data (words with concentration) (cells; [2]): blunting androunding

Oc1ccc(Nc2nc(Cl)nc(Cl)n2)cc1Cl
inhibition at 10 µM (IL6; at 10 uM): 35%
Proliferation Data (result in words) ([1]; concentration not given): Not active

COc1ccc(Nc2nc(NC3CCCCCC3)nc(OCc3cccc(C)n3)n2)cc1Cl
inhibition at 10 µM (IL6; at 10 uM): 60%
Proliferation Data (result in words) ([1]; concentration not given): Not active

COc1ccc(Nc2nc(NC3CCCCCC3)nc(NC3CCNCC3)n2)cc1
inhibition at 5 µM (IL6; at 5 uM): 69%
inhibition at 10 µM (IL6; at 10 uM): 88%
cell death under Inflammation Data (cells; at 5 uM): 20%
cell death under Inflammation Data (cells; at 10 uM): > 50%

COc1ccc(Nc2nc(NC3CCCCCC3)nc(OC3CCNCC3)n2)cc1Cl
inhibition at 10 µM (IL6; at 10 uM): 85%
IC50 [1]: 1.85 µM
cell death under Inflammation Data (cells; at 10 uM): 20%

COc1ccc(Nc2nc(Cl)nc(Nc3ccc(OC)c(F)c3)n2)cc1F
Inflammation Data, inhibition (IL6; at 5 uM): noeffect
inhibition at 10 µM (IL6; at 10 uM): 20%
Proliferation Data (result in words) ([1]; concentration not given): Not active

CCc1occc(=O)c1Oc1nc(Nc2ccc(OC)c(Cl)c2)nc(NC2CCCCCC2)n1
inhibition at 10 µM (IL6; at 10 uM): 48%
Proliferation Data (result in words) ([1]; 5 & 10 uM screens): Not active at 5 & 10 uM
cell death under Inflammation Data (cells; at 10 uM): 20%
